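Compound exposure: 48 hours, 5 concentrations, 96-well plates. GI50 is the concentration that inhibits growth by half.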 Active and inactive are the calls of the source. No stated cut-off is given here; in the data, active = GI50 up to about 1.1 µM and inactive = higher. Where a SMILES comes first, the peptide text is derived from it. The star is where a group is joined. Cbz = O=C(OCc1ccccc1)*
Experiments:
Assay in all cases: NCI tumour cell line growth inhibition, 48 h
[1] = test system: 786-0
[2] = test system: A549
[3] = test system: CCRF-CEM
[4] = test system: COLO 205
[5] = test system: EKVX
[6] = test system: HT-29
[7] = test system: MDA-MB-435
[8] = test system: OVCAR-3
[9] = test system: OVCAR-5
[10] = test system: OVCAR-8
[11] = test system: PC-3
[12] = test system: RPMI-8226
[13] = test system: RXF 393
[14] = test system: SF-268
[15] = test system: SK-MEL-28
[16] = test system: SK-OV-3
[17] = test system: TK-10
[18] = test system: U-251
[19] = test system: HOP-92
[20] = test system: Malme-3M

| Structure (SMILES) | GI50 [1] | GI50 [2] | GI50 [3] | GI50 [4] | GI50 [5] | GI50 [6] | GI50 [7] | GI50 [8] | GI50 [9] | GI50 [10] | GI50 [11] | GI50 [12] | GI50 [13] | GI50 [14] | GI50 [15] | GI50 [16] | GI50 [17] | GI50 [18] | GI50 [19] | GI50 [20] |
| --- | --- | --- | --- | --- | --- | --- | --- | --- | --- | --- | --- | --- | --- | --- | --- | --- | --- | --- | --- | --- |
| CC(C)(C)c1cc(/C=C/C(=O)CC(=O)/C=C/c2cc(C(C)(C)C)c(O)c(C(C)(C)C)c2)cc(C(C)(C)C)c1O | > 50 µM (inactive) | > 50 µM (inactive) | > 50 µM (inactive) | > 50 µM (inactive) | > 50 µM (inactive) | > 50 µM (inactive) | > 50 µM (inactive) | > 50 µM (inactive) | > 50 µM (inactive) | > 50 µM (inactive) | > 50 µM (inactive) | > 50 µM (inactive) | > 50 µM (inactive) | > 50 µM (inactive) | > 50 µM (inactive) | > 50 µM (inactive) | > 50 µM (inactive) | > 50 µM (inactive) |  |  |
| NC(=O)c1ccc(NS(=O)(=O)c2ccc(N)cc2)nc1 | > 100 µM (inactive) |  | > 100 µM (inactive) | > 100 µM (inactive) | > 100 µM (inactive) | > 100 µM (inactive) | > 100 µM (inactive) | > 100 µM (inactive) | > 100 µM (inactive) | > 100 µM (inactive) | > 100 µM (inactive) | > 100 µM (inactive) |  | > 100 µM (inactive) | > 100 µM (inactive) | > 100 µM (inactive) | > 100 µM (inactive) | > 100 µM (inactive) | > 100 µM (inactive) | > 100 µM (inactive) |
| CCOC(=O)[C@@H]1OC(c2ccccc2)O[C@H]1C(=O)OCC | > 100 µM (inactive) | > 100 µM (inactive) | > 100 µM (inactive) | > 100 µM (inactive) | > 100 µM (inactive) | > 100 µM (inactive) | > 100 µM (inactive) | > 100 µM (inactive) | > 100 µM (inactive) | > 100 µM (inactive) | > 100 µM (inactive) | > 100 µM (inactive) |  | > 100 µM (inactive) | > 100 µM (inactive) | > 100 µM (inactive) | > 100 µM (inactive) | > 100 µM (inactive) | > 100 µM (inactive) | > 100 µM (inactive) |
| CCOC(=O)CCC(NC(=O)CNC(=O)CNC(=O)C(CCC(=O)OCC)NC(=O)C(CCC(=O)OCC)NC(=O)C(CCC(=O)OCC)NC(=O)OCc1ccccc1)C(=O)NC(CCC(=O)OCC)C(=O)NC(CCC(=O)OCC)C(=O)OCC (stereo not drawn) (Cbz-E(OEt)E(OEt)E(OEt)GGE(OEt)E(OEt)E(OEt)-OEt; configuration not given here) | > 75 µM (inactive) | > 75 µM (inactive) | > 75 µM (inactive) | > 75 µM (inactive) | > 75 µM (inactive) | > 75 µM (inactive) | > 75 µM (inactive) |  | > 75 µM (inactive) | > 75 µM (inactive) | > 75 µM (inactive) | > 75 µM (inactive) | > 75 µM (inactive) | > 75 µM (inactive) | > 75 µM (inactive) | > 75 µM (inactive) | > 75 µM (inactive) | > 75 µM (inactive) |  | > 75 µM (inactive) |
| Cc1ccc(/C=C2\NC(=S)N(CN3CCCCC3)C2=O)cc1 | 47.3 µM (inactive) | 51.2 µM (inactive) | 12.4 µM (inactive) | 17 µM (inactive) | 46.3 µM (inactive) | 24.2 µM (inactive) | 46.5 µM (inactive) | 65.3 µM (inactive) | > 100 µM (inactive) | 32.5 µM (inactive) | 61.4 µM (inactive) | 32.2 µM (inactive) |  | 64 µM (inactive) | 79.3 µM (inactive) | > 100 µM (inactive) | 69.3 µM (inactive) | 48.6 µM (inactive) | 0.416 µM (active) | 85.3 µM (inactive) |
| O=C(NNC(=O)c1ccccc1O)c1cccc(Br)c1 | 44.9 µM (inactive) | 25.5 µM (inactive) | 0.512 µM (active) | 38.7 µM (inactive) | 23.6 µM (inactive) | 43 µM (inactive) | 37.9 µM (inactive) | 8.47 µM (inactive) | > 100 µM (inactive) | 20.9 µM (inactive) | 44.8 µM (inactive) | 15.2 µM (inactive) | > 100 µM (inactive) | 24.9 µM (inactive) | > 91.8 µM (inactive) | 54.1 µM (inactive) | > 100 µM (inactive) | > 100 µM (inactive) |  | 37.2 µM (inactive) |
| N#CCSc1c(-c2ccccc2)c(=O)n(-c2ccccc2)c(=S)n1-c1ccccc1 | > 100 µM (inactive) | > 100 µM (inactive) | 96.8 µM (inactive) | > 100 µM (inactive) | > 100 µM (inactive) | > 100 µM (inactive) | 90.6 µM (inactive) | > 100 µM (inactive) | > 100 µM (inactive) | > 100 µM (inactive) | > 100 µM (inactive) | > 100 µM (inactive) |  | > 100 µM (inactive) | > 100 µM (inactive) | > 100 µM (inactive) | > 100 µM (inactive) | > 100 µM (inactive) | 4.99 µM (inactive) | > 100 µM (inactive) |
| CS(=O)(=O)O[C@H]1CN2C[C@@H](O)[C@@H](O)[C@H]2[C@H]1CO.[B] | > 100 µM (inactive) | > 100 µM (inactive) | 0.333 µM (active) | > 100 µM (inactive) | > 100 µM (inactive) | > 100 µM (inactive) | > 100 µM (inactive) | > 100 µM (inactive) | > 100 µM (inactive) | > 100 µM (inactive) | > 100 µM (inactive) | > 100 µM (inactive) | > 100 µM (inactive) | > 100 µM (inactive) | > 100 µM (inactive) | > 100 µM (inactive) | > 100 µM (inactive) | > 100 µM (inactive) |  | > 100 µM (inactive) |
| CCC1(O)CC(OC2CC(N(C)C)C(OC3CC(O)C(OC4OC(C)C(=O)C=C4N)C(C)O3)C(C)O2)c2c(O)c3c(c(O)c2C1C(=O)OC)C(=O)c1cccc(O)c1C3=O (stereo not drawn) | 0.0021 µM (active) | 0.00356 µM (active) | 0.00284 µM (active) | 0.00376 µM (active) | 0.0103 µM (active) | 0.00475 µM (active) | 0.00371 µM (active) | 0.0225 µM (active) | 0.00792 µM (active) | 0.00398 µM (active) | 0.00535 µM (active) | 0.00314 µM (active) |  | 0.0925 µM (active) | 0.0105 µM (active) | 0.00274 µM (active) | 0.0168 µM (active) | 0.00336 µM (active) | 0.0164 µM (active) | 0.0114 µM (active) |
| CSc1nc(Nc2ccccc2Cl)c2c(N)nn(C)c2n1 | 82 µM (inactive) | > 100 µM (inactive) | > 100 µM (inactive) | > 100 µM (inactive) | 24.4 µM (inactive) | > 100 µM (inactive) | > 100 µM (inactive) | > 100 µM (inactive) | > 100 µM (inactive) | 16.9 µM (inactive) | > 100 µM (inactive) | > 100 µM (inactive) | 47.2 µM (inactive) | 77.8 µM (inactive) | > 100 µM (inactive) | > 100 µM (inactive) | > 100 µM (inactive) | > 100 µM (inactive) |  | > 100 µM (inactive) |
| N#Cc1nc(C(=O)c2ccccc2)oc1N | > 100 µM (inactive) | > 100 µM (inactive) | > 100 µM (inactive) |  | 65.5 µM (inactive) | > 100 µM (inactive) | > 100 µM (inactive) |  | > 100 µM (inactive) | > 100 µM (inactive) | > 100 µM (inactive) | > 100 µM (inactive) |  | > 100 µM (inactive) | > 100 µM (inactive) | > 100 µM (inactive) | > 100 µM (inactive) | > 100 µM (inactive) | > 100 µM (inactive) |  |
| CN(C)/C=N\c1nncc2[nH]cnc12 | > 100 µM (inactive) | > 100 µM (inactive) | 46.1 µM (inactive) | > 100 µM (inactive) | > 100 µM (inactive) | > 100 µM (inactive) | 63.5 µM (inactive) | > 100 µM (inactive) | > 100 µM (inactive) | > 100 µM (inactive) | > 100 µM (inactive) | > 100 µM (inactive) |  |  | > 100 µM (inactive) | > 100 µM (inactive) | 73.6 µM (inactive) | > 100 µM (inactive) | 19.9 µM (inactive) | 68.7 µM (inactive) |
| COc1ccc(C2C3=C(COC3=O)Oc3cc4c(cc32)OCO4)c(OC)c1 (stereo not drawn) | 21.7 µM (inactive) | 10.9 µM (inactive) | 11.1 µM (inactive) | 7 µM (inactive) | 48.5 µM (inactive) | 6.65 µM (inactive) | 2.28 µM (inactive) | 5.52 µM (inactive) | 43.5 µM (inactive) | 44.4 µM (inactive) | 6.75 µM (inactive) | 7.74 µM (inactive) | 16.1 µM (inactive) | 34 µM (inactive) | 23 µM (inactive) | 17.3 µM (inactive) | 62.1 µM (inactive) | 19.3 µM (inactive) |  | 14.9 µM (inactive) |
| Cc1cc(NC(=O)NC(=O)c2ccccc2[N+](=O)[O-])ccc1Oc1ncc(Cl)cn1 | 0.0671 µM (active) | 0.125 µM (active) | 0.0552 µM (active) | 0.107 µM (active) |  | 0.0488 µM (active) | 0.0115 µM (active) | 0.0361 µM (active) | 16.5 µM (inactive) | 0.303 µM (active) | 0.0336 µM (active) | 0.223 µM (active) | 0.0447 µM (active) | 1.9 µM (inactive) | 2.37 µM (inactive) | 0.0575 µM (active) | 19.8 µM (inactive) | 0.0916 µM (active) |  | 0.0231 µM (active) |
